Ends that are not written are not given here.

Test [1] concerns human monocyte IgG Fc receptors. The settings on record: literature (Ciccimarra 1975; Stanworth 1982; Ratcliffe and Stanworth 1982); Tuftsin also 'ourselves'; cited from earlier work.
The target in another test is C1 (Homo sapiens, UniProt P02745+P02746+P02747). The settings on record: Prystowsky et al. 1981, Lukas et al. 1981; cited from earlier work.
Test [2] deals with human and rodent mast cells. The conditions noted are these: Stanworth et al. 1979; cited from earlier work.
For test [3], the system named is local cutaneous allergic reaction (Prausnitz-Kustner). The settings on record: Hamburger 1975; cited from earlier work.
Test [4] deals with T1, IgE Fc receptor of human basophils (Homo sapiens, UniProt P12319).
T1 construct: host or cells: human basophils
T1 sequence (P12319 26-257): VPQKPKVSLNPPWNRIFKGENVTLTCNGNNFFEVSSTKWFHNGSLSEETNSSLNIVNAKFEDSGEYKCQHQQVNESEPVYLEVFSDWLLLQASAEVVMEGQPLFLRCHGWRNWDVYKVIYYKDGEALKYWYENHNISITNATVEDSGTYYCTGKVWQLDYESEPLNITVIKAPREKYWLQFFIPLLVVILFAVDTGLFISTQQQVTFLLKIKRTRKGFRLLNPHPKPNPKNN
T1 sequence (Q01362 1-244 partner): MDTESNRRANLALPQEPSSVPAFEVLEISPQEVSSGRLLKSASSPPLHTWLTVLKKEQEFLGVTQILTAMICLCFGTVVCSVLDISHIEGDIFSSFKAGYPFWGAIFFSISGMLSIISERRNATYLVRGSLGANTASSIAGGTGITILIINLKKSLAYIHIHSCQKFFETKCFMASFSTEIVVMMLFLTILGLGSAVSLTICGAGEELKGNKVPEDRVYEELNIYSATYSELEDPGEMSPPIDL
T1 sequence (P30273 19-86 partner): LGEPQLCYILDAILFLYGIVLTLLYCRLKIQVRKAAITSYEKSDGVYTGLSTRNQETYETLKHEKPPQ
The settings on record: Plummer et al. 1983; cited from earlier work.

For test [5], the system named is systemic allergic disease. The conditions noted are these: after injection by the subcutaneous route; cited from earlier work.
For a further test, the system named is lymphocytes. The conditions noted are these: Morgan, Huguli and Weigle 1982; cited from earlier work.
In test [6] the test system is granulocytes, monocytes and macrophages. The settings on record: in vitro; literature; cited from earlier work.
For test [7], the system named is macrophage IgG Fc receptors of mice. The conditions noted are these: Stanworth 1982; cited from earlier work.
Test [8] concerns the target T2, MONOCYTE/MACROPHAGE Fc Receptor IgE (Homo sapiens, UniProt P06734).
T2 construct: the cells expressing surface Fc receptors formed rosettes; endogenous in cells; host or cells: fresh human monocytes or U937
T2 sequence (P06734 1-321): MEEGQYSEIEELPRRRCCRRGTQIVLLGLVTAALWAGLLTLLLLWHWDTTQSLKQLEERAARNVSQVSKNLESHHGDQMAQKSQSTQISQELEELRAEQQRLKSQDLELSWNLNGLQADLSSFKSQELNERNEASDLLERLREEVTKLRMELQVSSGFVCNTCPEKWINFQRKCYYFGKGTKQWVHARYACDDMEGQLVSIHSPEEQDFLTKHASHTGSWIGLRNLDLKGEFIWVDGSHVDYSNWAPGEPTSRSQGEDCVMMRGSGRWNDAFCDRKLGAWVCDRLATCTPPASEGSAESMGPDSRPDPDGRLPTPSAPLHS
In words: Rosette inhibition assay, monocyte/macrophage IgE Fc receptor. In kind it is binding. The settings on record: human monocytes or U937; relative to intact monomeric myeloma IgE at equal concentration; NS = not significantly different from 0. On the procedure:
(§1) The Fc receptor blocking activity of the subject peptides was assessed using well established techniques and procedures. In particular, a rosette assay was employed which uses either monomeric, chemically or heat aggregated human IgG or IgE obtained from human myeloma sera. (Gonzalez-Molina, et al., J. Clin. Invest., 59, 616 (1977); Spiegelberg, et al. in Immunoassays: Clinical Laboratory Techniques for the 1980's (Alan R. Liss: New York, 1980), pp. 287-300). The IgG or IgE is then adsorbed to ox-erythrocytes which has been previously treated with trypsin and pyruvic aldehyde. Fresh human cell PMNs, monocytes and basophils from a patient with basophilic chronic myelogenous leukemia or human cell lines (RPMI-8866, and Daudi for lymphocyte Fc receptors and U937 for monocyte/macrophage Fc receptors) were then incubated in the presence or absence of inhibitors (monomeric IgG or IgE or peptides) at equal concentrations for fifteen minutes before addition of the indicator oxerythrocytes. In the absence of inhibitors, the cells expressing surface Fc receptors formed rosettes, clusters of three or more indicator erythrocytes that bound to the cells by virtue of exposed Fc regions on the erythrocyte surface. Addition of inhibitor myeloma proteins or inhibitor peptides produced a reproducable reduction of rosette formation, […], phosphate buffered isotonic saline, was used alone as control and then multiplying the calculated quotient by 100.
(§2) Table 1 presents the inhibition observed by representative peptide inhibitors calculated as a percentage of the inhibition observed with intact, monomeric myeloma proteins. Thus, 50 percent inhibition implys that the peptide was 50% as inhibitory as the intact myeloma protein to which it was compared.

Test [9] has as its target T3, LYMPHOCYTE Fc Receptor IgG (Homo sapiens, UniProt P31994).
T3 construct: the cells expressing surface Fc receptors formed rosettes; endogenous in cells; host or cells: RPMI-8866 / Daudi
T3 sequence (P31994 43-310): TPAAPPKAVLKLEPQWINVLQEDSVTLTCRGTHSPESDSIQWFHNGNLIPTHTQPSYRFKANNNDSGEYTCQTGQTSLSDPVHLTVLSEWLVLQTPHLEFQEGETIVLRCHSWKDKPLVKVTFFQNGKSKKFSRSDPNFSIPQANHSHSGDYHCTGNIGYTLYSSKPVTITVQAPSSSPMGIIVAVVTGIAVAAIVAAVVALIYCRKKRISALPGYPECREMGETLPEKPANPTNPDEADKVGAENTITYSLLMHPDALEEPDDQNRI
Nature of the test: Rosette inhibition assay, lymphocyte IgG Fc receptor. In kind it is binding. The settings on record: RPMI-8866 and Daudi cell lines; relative to intact monomeric myeloma IgG at equal concentration; NS = not significantly different from 0. On the procedure:
as §1, §2

In test [10] the target is T4, LYMPHOCYTE Fc Receptor IgE (Homo sapiens, UniProt P06734).
T4 construct: the cells expressing surface Fc receptors formed rosettes; endogenous in cells; host or cells: RPMI-8866 / Daudi
T4 sequence (P06734 1-321): T2 sequence (P06734 1-321)
Nature of the test: Rosette inhibition assay, lymphocyte IgE Fc receptor. In kind it is binding. The conditions noted are these: RPMI-8866 and Daudi cell lines; relative to intact monomeric myeloma IgE at equal concentration; NS = not significantly different from 0. As for the experimental part:
as §1, §2

The next test addresses T5, BASOPHIL Fc Receptor IgE (Homo sapiens, UniProt P12319).
T5 construct: the cells expressing surface Fc receptors formed rosettes; endogenous in cells; host or cells: basophils of a patient with basophilic chronic myelogenous leukemia
T5 sequence (P12319 26-257): T1 sequence (P12319 26-257)
T5 sequence (Q01362 1-244 partner): T1 sequence (Q01362 1-244 partner)
T5 sequence (P30273 19-86 partner): T1 sequence (P30273 19-86 partner)
In words: Rosette inhibition assay, basophil IgE Fc receptor. In kind it is binding. The conditions noted are these: basophils from a patient with basophilic chronic myelogenous leukemia; relative to monomeric myeloma IgE; NS = not significantly different from 0. As for the experimental part:
as §1, §2

Sequence of C1 (P02745 23-245): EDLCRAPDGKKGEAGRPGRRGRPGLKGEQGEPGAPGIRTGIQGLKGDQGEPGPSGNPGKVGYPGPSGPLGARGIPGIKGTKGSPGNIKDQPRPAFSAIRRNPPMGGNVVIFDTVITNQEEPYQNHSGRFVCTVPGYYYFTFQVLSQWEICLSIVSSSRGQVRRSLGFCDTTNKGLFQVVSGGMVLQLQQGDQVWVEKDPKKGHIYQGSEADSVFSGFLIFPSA
Sequence of C1 (P02746 28-253): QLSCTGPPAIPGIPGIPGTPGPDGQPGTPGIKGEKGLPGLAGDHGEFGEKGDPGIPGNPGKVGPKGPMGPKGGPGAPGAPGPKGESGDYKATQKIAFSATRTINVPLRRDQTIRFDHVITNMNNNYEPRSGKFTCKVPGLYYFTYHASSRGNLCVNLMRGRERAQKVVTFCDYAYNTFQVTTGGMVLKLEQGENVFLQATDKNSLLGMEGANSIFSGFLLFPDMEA
Sequence of C1 (P02747 29-245): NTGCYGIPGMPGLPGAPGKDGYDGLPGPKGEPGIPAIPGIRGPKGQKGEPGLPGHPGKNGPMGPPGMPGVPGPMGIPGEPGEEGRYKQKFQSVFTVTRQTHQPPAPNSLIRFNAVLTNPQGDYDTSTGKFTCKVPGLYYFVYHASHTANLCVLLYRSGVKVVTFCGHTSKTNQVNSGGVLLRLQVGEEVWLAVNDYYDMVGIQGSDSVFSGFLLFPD
Sequence of C1 (P00736 18-705 partner): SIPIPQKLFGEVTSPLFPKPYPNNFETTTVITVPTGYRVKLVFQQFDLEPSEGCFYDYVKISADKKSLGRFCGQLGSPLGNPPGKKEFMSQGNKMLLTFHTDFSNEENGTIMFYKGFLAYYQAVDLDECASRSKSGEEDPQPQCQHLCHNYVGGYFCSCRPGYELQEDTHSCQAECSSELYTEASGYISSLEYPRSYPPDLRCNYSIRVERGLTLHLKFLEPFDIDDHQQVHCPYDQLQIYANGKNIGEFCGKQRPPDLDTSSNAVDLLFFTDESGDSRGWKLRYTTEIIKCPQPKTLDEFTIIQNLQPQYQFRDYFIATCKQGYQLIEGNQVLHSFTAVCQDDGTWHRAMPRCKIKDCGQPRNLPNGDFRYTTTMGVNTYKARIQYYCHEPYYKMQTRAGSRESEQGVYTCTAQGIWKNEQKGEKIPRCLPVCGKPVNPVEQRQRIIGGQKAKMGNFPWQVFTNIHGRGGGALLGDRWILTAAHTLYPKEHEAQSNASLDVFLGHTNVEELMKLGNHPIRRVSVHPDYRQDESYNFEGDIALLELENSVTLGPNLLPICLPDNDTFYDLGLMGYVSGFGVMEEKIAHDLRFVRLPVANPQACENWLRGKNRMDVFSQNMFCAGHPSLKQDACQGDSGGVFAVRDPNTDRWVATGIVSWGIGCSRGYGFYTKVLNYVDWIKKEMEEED
Sequence of C1 (P09871 16-688 partner): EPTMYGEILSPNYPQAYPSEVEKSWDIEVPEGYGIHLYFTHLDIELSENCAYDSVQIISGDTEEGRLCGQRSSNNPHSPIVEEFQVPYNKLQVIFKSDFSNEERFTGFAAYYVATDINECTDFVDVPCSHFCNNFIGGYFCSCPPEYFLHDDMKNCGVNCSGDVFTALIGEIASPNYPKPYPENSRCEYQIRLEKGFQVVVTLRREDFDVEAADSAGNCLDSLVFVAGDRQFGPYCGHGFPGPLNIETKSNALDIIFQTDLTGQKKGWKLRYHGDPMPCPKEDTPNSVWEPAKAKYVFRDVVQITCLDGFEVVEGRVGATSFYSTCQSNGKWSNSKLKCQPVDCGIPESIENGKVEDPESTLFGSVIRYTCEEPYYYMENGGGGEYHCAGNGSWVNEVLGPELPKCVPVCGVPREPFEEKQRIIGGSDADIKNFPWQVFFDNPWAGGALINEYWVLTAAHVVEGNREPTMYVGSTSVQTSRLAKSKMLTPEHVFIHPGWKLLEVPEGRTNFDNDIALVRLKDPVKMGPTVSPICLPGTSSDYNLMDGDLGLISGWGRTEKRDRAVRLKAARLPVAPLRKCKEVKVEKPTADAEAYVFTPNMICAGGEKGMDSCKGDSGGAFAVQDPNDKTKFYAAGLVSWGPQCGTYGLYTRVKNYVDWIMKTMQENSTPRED

For QYDSTYR, the “blocking of human IgG binding to human monocyte IgG Fc receptors” value in test [1] is “could slightly block”.
For “Val-Gln-Val-His-Asn-Ala-Lys-Thr-Lys-Pro-Arg-OH (VQVHNAKTKPR-OH)”, in the test with C1, the “inhibition of C1-mediated hemolysis” value is reported as “approximately as active as inhibitors as intact monomeric IgG”.
As to PRKTKGSGFFVF, the “degranulation of mast cells” value in test [2] is reported as “able to cause degranulation”.
Consider Ac-Phe-Asn-Trp-Tyr-Val (Ac-FNWYV), for which the “inhibition of C1-mediated hemolysis” value with C1 was “less active”.
Regarding “Asp-Ser-Asp-Pro-Arg (DSDPR; printed: Asp-Ser-Asp-Pro-Arg)”, the “inhibition of local cutaneous allergic reaction (Prausnitz-Kustner)” value in [3] is on record as “approximately 90%”. Besides, the “block of human IgE binding to basophil IgE Fc receptors” value in test [4] was “up to 70%”. For the same substance, the “effect on systemic allergic disease in humans” value in test [5] is given as “inhibit systemic allergic disease”.
Consider GVQVHNAKTK, for which the “inhibition of C1-mediated hemolysis” value with C1 is given as “approximately as active as inhibitors as intact monomeric IgG”.
With TISKAKGQPREPQVYTLPSREEM, in the test with lymphocytes, the “nonspecific activation of lymphocytes” value is “induce polyclonal B cell proliferation, antigen-specific antibody responses and Natural Killer (NK) cell-mediated lysis”.
As for “Thr-Lys-Pro-Arg (TKPR; printed: Thr-Lys-Pro-Arg) [Tuftsin]”, the “inhibition of C1-mediated hemolysis” value with C1 is reported as “less active”. Moreover, the stimulation of phagocytosis result in test [6] is reported as “active at nanomolar concentrations”. In test [1], the “blocking of human IgG binding to human monocyte IgG Fc receptors” value is “competitively inhibits”.
With “Gly-Gln-Pro-Arg (GQPR; printed: Gly-Gln-Pro-Arg) [Rigin]”, the stimulation of phagocytosis entry in [6] is given as “phagocytosis-stimulating abilities similar to those of Tuftsin”.
Take FNWYVDGVQVHNAKTK: at C1, the “inhibition of C1-mediated hemolysis” value is “less active”.
For VFSRLEVTRAE, the “binding of 125I-human IgG to mouse macrophages” value in [7] is reported as “marked enhancement”.
Regarding “PDARHSTTQPR [Pro--Asp--Ala--Arg--His--Ser--Thr--Thr--Gln--Pro--Arg]”, in [8], the “Rosette inhibition expressed as percent inhibition by monomeric IgE; monocyte/macrophage Fc receptor, IgE” value was 103%. Besides, the “Rosette inhibition expressed as percent inhibition by monomeric IgG; lymphocyte Fc receptor, IgG” value in test [9] is reported as 92%. In test [10], the “Rosette inhibition expressed as percent inhibition by monomeric IgE; lymphocyte Fc receptor, IgE” value came to 100%. Also, at BASOPHIL Fc Receptor IgE, the “Rosette inhibition expressed as percent inhibition by monomeric IgE; basophil Fc receptor, IgE” value was ~ 130%.

Values taken from US4579840A, “Method of blocking immune complex binding to immunoglobulin Fc receptors” (Immunetech Pharmaceuticals, priority 1983, dated 1986).
